# Patent publication US20040247589A1, “Anti-tumor activity from reptile serum” (priority 2001, published 2004)
# Columns and labels:
# normal bone marrow cells = assay: Cell proliferation assay (BrdU) in normal bone marrow cells; format: cell-based; details: normal human bone marrow cells
# Method: (§1) Cell proliferation was assayed using the commercial ELISA kit BIOTRACK™ (RPN250, Amersham Life Sciences). The assay is based on incorporation of 5-bromo-2′-deoxyuridine (BrdU) during DNA synthesis. After treatment of cells with the tested agent for 24 hours, cells are incubated for 18 hours in the presence of 10 μM BrdU. This pyrimidine analog is incorporated into DNA and is detected using specific antibody conjugated to peroxidase following 3,3′,5′,5′-tetramethylbenzidine (TMB) as a substrate. The absorbance of the enzymatic product is measured at 450 nm.
# PN71 cells = assay: Cell proliferation assay (BrdU) in PN71 cells; format: cell-based, murine
# Method: as §1
structure (smiles),measurement,setting,value
"Nc1ccn([C@@H]2O[C@H](CO)[C@@H](O)[C@@H]2O)c(=O)n1 [Cytosar, Cytarabine]",effect on proliferation (BrdU) of normal bone marrow cells,normal bone marrow cells,indiscriminately destroys
same,effect on proliferation (BrdU) of PN71 cells,PN71 cells,indiscriminately destroys
